Experiments:
p38α = target: T1, p38α (Homo sapiens, UniProt Q16539); assay: p38 MAP Kinase assay: inhibition of ATF2 phosphorylation, ELISA; assay type: biochemical; conditions: for IC50: ATF2 phosphorylation, read-out: [ENZ] P38 ALPHA, IC50, ELISA
T1 construct: p38 MAP Kinases are recombinant human full-length proteins with an amino-terminal GST fusion; GST (N); purchased Upstate Biotechnology Inc; host or cells: E. coli
Outline: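 GST-tagged full-length human p38 MAP kinase with GST-ATF2 (aa 19–96; 1.25 μM) and 40 μM ATP in HEPES pH 7.5 buffer, without (Method I) or with (Method II) 1% human serum albumin. Compound pre-incubated 15 min at room temperature; reaction 30 min at 37 °C; ATF2 Thr69 phosphorylation measured by ELISA (A450).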

[1] = tested on: TNFα release from THP-1 cells; assay: Inhibition of TNFα release from LPS-stimulated THP-1 cells, ELISA; assay type: cell-based; conditions: Homo sapiens, THP-1, THP-1 cells, read-out: [CELL] THP-1, IC50, TNF ALPHA, ELISA
Outline: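 Human THP-1 monocytes, 10^6 cells/ml in RPMI with 10% FBS, no serum or 1% HSA, preincubated 30 min at 37 °C with compound (≤0.5% DMSO), then stimulated with 10 μg/ml LPS for 18 h. Supernatant TNFα measured by ELISA; IC50 from non-linear dose-response regression.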

T1 sequence (Q16539 whole entry, the tested form may be a part): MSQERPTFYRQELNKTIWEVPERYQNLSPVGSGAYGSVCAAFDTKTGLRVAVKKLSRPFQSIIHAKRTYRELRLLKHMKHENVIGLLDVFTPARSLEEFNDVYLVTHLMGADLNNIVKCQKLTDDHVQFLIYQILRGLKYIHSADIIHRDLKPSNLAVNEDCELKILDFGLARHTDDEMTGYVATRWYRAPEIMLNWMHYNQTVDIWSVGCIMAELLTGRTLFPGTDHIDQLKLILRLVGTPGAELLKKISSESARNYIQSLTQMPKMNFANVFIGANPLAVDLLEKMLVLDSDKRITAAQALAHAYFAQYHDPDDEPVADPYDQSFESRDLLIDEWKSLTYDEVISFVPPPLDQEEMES

SMILES | IC50 (p38α) [nM] | IC50 [1] [nM] | melting point [°C] | inhibition at 10 µM (p38α; 10 uM, substrate ATF2, read-out: [ENZ] P38 ALPHA, PCT INH, ELISA (10 uM;ATF2) (Percent)) [%]
CC1CCC(Nc2nccc(Oc3ccc(NC(=O)c4cc(F)cc(N5CCOCC5)c4)c4ccccc34)n2)CC1 (stereo not shown) [Compound B337, 3-Fluoro-N-[4-({2-[(4-methylcyclohexyl)amino]pyrimidin-4-yl}oxy)-1-naphthyl]-5-morpholin-4-ylbenzamide] | 33.3 | 65.6 | 116 to 117 | 
O=C(Nc1ccc(Oc2ccnc(N3CCC(O)CC3)n2)c2ccccc12)c1cc(F)cc(N2CCCCC2)c1 [Compound B387, 3-Fluoro-N-(4-{[2-(4-hydroxypiperidin-1-yl)pyrimidin-4-yl]oxy}-1-naphthyl)-5-piperidin-1-ylbenzamide] | 5.7 | 309 | 182 to 184 | 
O=C(Nc1ccc(OCCCN2CCNCC2)c2ccccc12)c1cc(F)cc(N2CCCCC2)c1 [Compound B183, 3-Fluoro-N-[4-(3-piperazin-1-yl-propoxy)-naphthalen-1-yl]-5-piperidin-1-yl-benzamide] | 1140 | > 10000 | 70 to 72 | 
CSc1nccc(Oc2ccc(NC(=O)c3cc(F)cc(N4CCC(C)CC4)c3)c3ccccc23)n1 [Compound B247, 3-Fluoro-5-(4-methylpiperidin-1-yl)-N-(4-{[2-(methylthio)pyrimidin-4-yl]oxy}-1-naphthyl)benzamide] | 587 | 780 | 142 to 143 | 
O=C1CN(c2nccc(Oc3ccc(NC(=O)c4cc(F)cc(N5CCOCC5)c4)c4ccccc34)n2)CCN1 [Compound B368, 3-Fluoro-5-morpholin-4-yl-N-(4-{[2-(3-oxopiperazin-1-yl)pyrimidin-4-yl]oxy}-1-naphthyl)benzamide] | 19.7 | 141 | 108 to 110 | 
CCN(C)c1cc(F)cc(C(=O)Nc2ccc(OCCN3CCOCC3)c3ccccc23)c1 [Compound B207, 3-[Ethyl(methyl)amino]-5-fluoro-N-[4-(2-morpholin-4-ylethoxy)-1-naphthyl]benzamide] | 1120 | > 10000 | 126 to 128 | 
O=C(Nc1ccc(OCc2ccncc2)c2ccccc12)c1cc(F)cc(OC2CCOCC2)c1 [Compound B229, 3-Fluoro-N-[4-(pyridin-4-ylmethoxy)-1-naphthyl]-5-(tetrahydro-2H-pyran-4-yloxy)benzamide] | 821 | 5660 | 182 to 184 | 
O=C(Nc1ccc(OCCN2CCOCC2)c2ccccc12)c1cc(F)cc(N2CCCCCC2)c1 [Compound B67, 3-Azepan-1-yl-5-fluoro-N-[4-(2-morpholin-4-ylethoxy)-1-naphthyl]benzamide] | 620 | 9080 | 142 to 144 | 85
CSc1nccc(Oc2ccc(NC(=O)c3cc(F)cc(OC4CCCC4)c3)c3ccccc23)n1 [Compound B304, 3-(Cyclopentyloxy)-5-fluoro-N-(4-{[2-(methylthio)pyrimidin-4-yl]oxy}-1-naphthyl)benzamide] | 225 | 239 | 115 to 116 | 
O=C(Nc1ccc(OCc2ccncc2)c2ccccc12)c1cc(F)cc(OC2CCCCC2)c1 [Compound B235, 3-(Cyclohexyloxy)-5-fluoro-N-[4-(pyridin-4-ylmethoxy)-1-naphthyl]benzamide] | 125 | 557 | 176 to 178 | 
CC1CCN(c2cc(F)cc(C(=O)Nc3ccc(OCc4n[nH]c(=O)n4-c4ccccc4)c4ccccc34)c2)CC1 [Compound B263, 3-Fluoro-5-(4-methyl-piperidin-1-yl)-N-[4-(5-oxo-4-phenyl-4,5-dihydro-1H-[1,2,4]triazol-3-ylmethoxy)-naphthalen-1-yl]-benzamide] | 5080 | 4260 | 140 to 143 | 
O=C(Nc1ccc(Oc2ccnc(N3CCC4(CC3)OCCO4)n2)c2ccccc12)c1cc(F)cc(N2CCCCC2)c1 [Compound B378, N-(4-{[2-(1,4-Dioxa-8-azaspiro[4.5]dec-8-yl)pyrimidin-4-yl]oxy}-1-naphthyl)-3-fluoro-5-piperidin-1-ylbenzamide] | 17.1 | 225 | 195 to 196 | 
COCCN(C)c1nccc(Oc2ccc(NC(=O)c3cc(F)cc(N4CCCCC4)c3)c3ccccc23)n1 [Compound B414, 3-Fluoro-N-[4-({2-[(2-methoxyethyl)(methyl)amino]pyrimidin-4-yl}oxy)-1-naphthyl]-5-piperidin-1-ylbenzamide] | 28.9 | 580 | 81 to 82 | 
O=C1CN(CCCOc2ccc(NC(=O)c3cc(F)cc(N4CCCCC4)c3)c3ccccc23)CCN1 [Compound B175, 3-Fluoro-N-{4-[3-(3-oxo-piperazin-1-yl)-propoxy]-naphthalen-1-yl}-5-piperidin-1-yl-benzamide] | 1110 | > 10000 | 90 to 92 | 
O=C(Nc1ccc(Oc2ccnc(-n3ccnc3)n2)c2ccccc12)c1cc(F)cc(N2CCCCC2)c1 [Compound B379] | 15.1 | 530 | 175 to 176 | 
CN(C)[C@@H]1CCN(c2nccc(Oc3ccc(NC(=O)c4cc(F)cc(N5CCOCC5)c4)c4ccccc34)n2)C1 [Compound B342, N-[4-({2-[(3R)-3-(dimethylamino)pyrrolidin-1-yl]pyrimidin-4-yl}oxy)-1-naphthyl]-3-fluoro-5-morpholin-4-ylbenzamide] | 22.3 | 61.5 | 115 to 117 | 
CN(CC1OCCO1)c1nccc(Oc2ccc(NC(=O)c3cc(F)cc(N4CCCCC4)c3)c3ccccc23)n1 [Compound B395, N-[4-({2-[(1,3-Dioxolan-2-ylmethyl)(methyl)amino]pyrimidin-4-yl}oxy)-1-naphthyl]-3-fluoro-5-piperidin-1-ylbenzamide] | 31.3 | 212 | 125 to 127 | 
O=C(Nc1ccc(OCCN2CCOCC2)c2ccccc12)c1cc(N2CCOCC2)ncn1 [Compound B54, 6-Morpholin-4-yl-pyrimidine-4-carboxylic acid [4-(2-morpholin-4-yl-ethoxy)-naphthalen-1-yl]-amide] | > 10000 | > 10000 | 50 to 51 | 
COC(CN(C)c1nccc(Oc2ccc(NC(=O)c3cc(F)cc(N4CCCCC4)c3)c3ccccc23)n1)OC [Compound B403, N-[4-({2-[(2,2-Dimethoxyethyl)(methyl)amino]pyrimidin-4-yl}oxy)-1-naphthyl]-3-fluoro-5-piperidin-1-ylbenzamide] | 48.3 | 254 | 135 to 136 | 
CC1CCCN1c1nccc(Oc2ccc(NC(=O)c3cc(F)cc(N4CCCCC4)c3)c3ccccc23)n1 (stereo not shown) [Compound B404, 3-Fluoro-N-(4-{[2-(2-methylpyrrolidin-1-yl)pyrimidin-4-yl]oxy}-1-naphthyl)-5-piperidin-1-ylbenzamide] | 151 | 1120 | 93 to 94 | 
CN(CC1OCCO1)c1nccc(Oc2ccc(NC(=O)c3cc(F)cc(N4CCOCC4)c3)c3ccccc23)n1 [Compound B349, N-[4-({2-[(1,3-Dioxolan-2-ylmethyl)(methyl)amino]pyrimidin-4-yl}oxy)-1-naphthyl]-3-fluoro-5-morpholin-4-ylbenzamide] | 18.7 | 74.7 | 111 to 112 | 
O=C(Nc1ccc(OCCN2CCOCC2)c2ccccc12)c1cccc(-c2cccnc2)c1 [Compound B58, N-[4-(2-Morpholin-4-yl-ethoxy)-naphthalen-1-yl]-3-pyridin-3-yl-benzamide] | 8810 | > 10000 | 77 to 78 | 
O=C(Nc1ccc(Oc2ccnc(NCC3CCCO3)n2)c2ccccc12)c1cc(F)cc(N2CCOCC2)c1 (stereo not shown) [Compound B327, 3-Fluoro-5-morpholin-4-yl-N-[4-({2-[(tetrahydrofuran-2-ylmethyl)amino]pyrimidin-4-yl}oxy)-1-naphthyl]benzamide] | 2.1 | 24.8 | 103 to 105 | 
O=C(Nc1ccc(Oc2ccnc(NCCN3CCCCC3)n2)c2ccccc12)c1cc(F)cc(N2CCCCC2)c1 [Compound B390, 3-Fluoro-5-piperidin-1-yl-N-[4-({2-[(2-piperidin-1-ylethyl)amino]pyrimidin-4-yl}oxy)-1-naphthyl]benzamide] | 3 | 115 | 88 to 89 | 
O=C(Nc1ccc(Oc2ccnc(NC3CCC3)n2)c2ccccc12)c1cc(F)cc(N2CCCCC2)c1 [Compound B383, N-(4-{[2-(Cyclobutylamino)pyrimidin-4-yl]oxy}-1-naphthyl)-3-fluoro-5-piperidin-1-ylbenzamide] | 11.4 | 311 | 112 to 114 | 
Cc1ncsc1CCOc1ccc(NC(=O)c2cc(F)cc(N3CCOCC3)c2)c2ccccc12 [Compound B231, 3-Fluoro-N-{4-[2-(4-methyl-1,3-thiazol-5-yl)ethoxy]-1-naphthyl}-5-morpholin-4-ylbenzamide] | 27.7 | 193 | 186 to 187 | 
